{"source": "patent US20250114354A1", "about": "“COMBINATION TREATMENT REGIMENS - SMARCA2 DEGRADER WITH PD-1 INHIBITORS” (PRELUDE THERAPEUTICS INCORPORATED, priority 2023, published 2025)", "key": {"[1]": {"tested_on": "T cells (human PBMCs co-cultured with SMARCA4 deleted NCI-H1299 cells)", "experiment": "Flow cytometry of T cell activation markers in co-culture of NCI-H1299 cells and human PBMCs", "format": "cell-based", "conditions": "Formula (I) combined with Pembrolizumab, FIG. 1A", "from_the_text": "Human peripheral blood mononuclear cells (PBMCs) were co-cultured with NCI-H1299 cells (SMARCA4 deleted NSCLC) with Pembrolizumab and/or Formula (I). The cell samples from co-culture were stained for CD3 (T cell marker), CD8 (T cell marker), and CD25 (T cell activation marker) and analyzed by flow cytometry to determine percentages of cells with marker positive populations.\n(§1) H1299 (CRL-5803) and H1975 (CRL-5908) were purchased from the American […]. Human Mononuclear Cells (PBMC) (HUMANPBMC-0001989) were purchased from BioIVT. NCI-H1299, NCI-H1975 and all CT26 cells were cultured in RPMI-1640 (ATCC, 30-2001) supplemented with 10% FBS (Gibco, 26140-079) and 1× penicillin-streptomycin (Thermofisher, 15140122). Human Peripheral Bloogd Mononuclear Cells (PBMCs) were cultured in RPMI-1640, 20% FBS, 100U/ml Human Recombinant IL-2 (Gibco, PHC0027) and 1× penicillin-streptomycin. All cells were maintained at 37° C. in 5% CO2 in a humidified incubator.\nSamples from co-culture were collected in Eppendorf tubes and 500 ul of PBS was added. The samples were centrifuged (300 g, 5 minutes) to wash. Supernatant was removed and the pellet was resuspended in 200 ul FACS buffer. Samples were placed on ice for 15 minutes to block. After blocking, the samples were centrifuged (300 g, 5 minutes). […]"}, "[2]": {"tested_on": "IFN-gamma, IL-2 and Granzyme B in co-culture of NCI-H1299 cells and human PBMCs", "experiment": "Cytokine analysis (MSD U-PLEX) of co-culture supernatant", "format": "cell-based", "conditions": "Formula (I) combined with Pembrolizumab; conditioned media; FIG. 1B", "experimental": "Supernatant from the co-culture were plated into a 96-well plate and cytokines were analyzed using the MSD U-PLEX Immuno-Oncology Group 1 (Human) kit (MesoScale Discovery, Custom-made kit). Expressions of IFN-gamma, IL-2 and Granzyme B are shown.\nas §1\nSupernatant from the co-culture were plated into a 96-well plate and cytokines were analyzed using the MSD U-PLEX Immuno-Oncology Group 1 (Human) kit (MesoScale Discovery, Custom-made kit)."}, "[3]": {"tested_on": "SMARCA4 WT NCI-H1975 cells", "experiment": "Incucyte 3D tumor spheroid growth, NCI-H1975 cells with human PBMCs", "format": "cell-based", "conditions": "Formula (I) 100 nM with pembrolizumab 100 ug/ml; FIG. 2C", "experimental": "(§2) The cells were treated with or without Formula (I) and/or pembrolizumab. The data were generated with SMARCA4 deleted NCI-H1299 and SMARCA4 WT NCI-H1975 cells.\n(§3) GFP-tagged tumor cells were seeded in 96 well Ultra-Low Adherence (ULA) plates (Corning, 7007) (2000 cells/well) and centrifuged briefly (300 g, 30 seconds) to induce cell aggregation. The cells were incubated at 37° C. overnight to allow complete aggregation into spheroids. Following the addition of immune cells with treatment of Pembrolizumab (MedChemExpress, HY-P9902) (100 ug/ml) and/or Formula (I) (100 nM). Three-dimensional tumor spheroid growth was monitored using Sartorius' Incucyte® SX1 Live-Cell Analysis.\n(§4) H1299 and H1975 cells were seeded (500,000 cells/well) in 6 well Tissue Culture Treated plates (Corning 3516) and allowed to aggregate into tumor spheroids for 1-2 hours. Tumor spheroids were treated with 600 ul of Incucyte® Cytolight Lentivirus (Sartorius, 4481) for a MOI of 3 and 8 ug/ml Polybrene Transfection Reagent (Sigma-Aldrich, TR-1003). The cells were incubated at 37° C. overnight. Following incubation, media was removed and replaced with fresh media. GFP expression was monitored using Sartorius' Incucyte® SX1 Live-Cell Analysis System (9600-0031)."}, "[4]": {"tested_on": "SMARCA4 deleted NCI-H1299 cells", "experiment": "Incucyte 3D tumor spheroid growth, NCI-H1299 cells with human PBMCs", "format": "cell-based", "conditions": "Formula (I) 100 nM with pembrolizumab 100 ug/ml; FIG. 2C", "experimental": "as §2, §3, §4"}, "[5]": {"tested_on": "SMARCA4 deleted A549 cells", "experiment": "Incucyte 3D tumor spheroid growth, A549 cells with HLA-matched T cells", "format": "cell-based, human", "experimental": "Green fluorescence protein (GFP) positive A549 cells were cultured with or without HLA-matched T cells and treated with Formula (I) in the spheroid culture system. Representative figures of the 3D cancer cell spheroids were shown.\nThe data were generated with SMARCA4 deleted A549 cells.\nas §3"}}, "note": "“Also recorded” adds a separate entry of the source.", "data": [{"molecule": "Cc1ncsc1-c1ccc([C@H](C)NC(=O)[C@@H]2C[C@@H](O)CN2C(=O)[C@@H](c2cc(O[C@@H](C)CN3CC[C@@H](N4CCN5c6cc(-c7ccccc7O)nnc6NC[C@H]5C4)C3)no2)C(C)C)cc1", "note": "[Formula (I)]", "values": [{"measurement": "activated (CD25+) CD3+ T cells", "setting": "[1]", "result": "increased"}, {"measurement": "activated (CD25+) CD8+ T cells", "setting": "[1]", "result": "increased"}, {"measurement": "Gramzyme B level in co-culture supernatant", "setting": "[2]", "result": "higher levels"}, {"measurement": "IFN-g level in co-culture supernatant", "setting": "[2]", "result": "higher levels"}, {"measurement": "IL-2 level in co-culture supernatant", "setting": "[2]", "result": "higher levels"}, {"measurement": "combination effect on NCI-H1975 spheroids cultured with PBMCs", "setting": "[3]", "result": "the combination effect was not seen"}, {"measurement": "combination effect on NCI-H1299 spheroids cultured with PBMCs, compared to single agent treated groups", "setting": "[4]", "result": "showed more"}, {"measurement": "T-cell mediated A549 killing", "setting": "[5]; Formula (I) 100 nM in the presence of T cells, quantitated GFP positive cells, FIG. 2A/2B", "result": "significantly increased; also recorded: promoted"}, {"measurement": "growth of A549 cancer cells (GFP positive) in 3D spheroid culture", "setting": "[5]; Formula (I) 100 nM with HLA-matched T cells, FIG. 2A", "result": "inhibited growth"}]}]}
